Results: article PMC6951458 (Clinical and Translational Science, 2019)
Like-named read-outs stand apart in the source and are kept apart here. Marks after values point to notes of the source that are not given here.

What was measured:
dogs [1] = assay: Single oral dose-escalation study in dogs; type: in vivo, dog; settings: at 30 mg/kg/day
[2] = system: stem cells derived from patients with CML‐BC or Philadelphia chromosome–positive acute lymphoblastic leukemia; settings: in combination with tyrosine kinase inhibitors; cited from earlier work
bacteria = assay: Bacterial reverse mutation assay; type: cell-based
healthy volunteers [3] = assay: Intensive ECG monitoring in healthy volunteers; type: in vivo, human
Plasma protein binding = type: in vitro ADME, human, dog
[4] = system: pro‐inflammatory cytokines, chemokines, and growth factors; settings: in vivo; cited from earlier work
mouse model of CML‐BC = settings: cited from earlier work
phosphodiesterase 3 = assay: Phosphodiesterase 3 activity; type: biochemical; settings: read-out: IC50, phosphodiesterase 3
healthy volunteers [5] = settings: for AEs grade 1–2 CTCAE, % / AEs grade 3 CTCAE: ↑CK, % / Gastrointestinal disorders, % / Investigations, % / ↑ALT (%) / ↑CK (%) / ↓WBC (%) / SAEs: seizure (%) / Diarrhea, %: number of subjects (%); for Diarrhea, %: grade 1–2
[6] = First-in-human pharmacokinetics in healthy volunteers; type: in vivo; settings: for Mean t1/2 / AUC(0-inf) / AUC(0-t) / Cmax / Tmax / Vd/F: healthy volunteers; for Mean t1/2 / AUC(0-inf) / AUC(0-t) / Cmax / Tmax / half-life / Vd/F: [SD]; for AUC(0-inf) / AUC(0-t) / Cmax / Tmax / half-life / Vd/F: human, plasma, po; for AUC(0-inf): Mean AUC0−inf; for AUC(0-t): Mean AUC0−t; for Cmax: Mean Cmax; for Tmax: Mean Tmax; for half-life: Mean t1/2, healthy volunteers
dogs [7] = assay: 4-week study in dogs; type: in vivo, dog; settings: dogs
4-week study in dogs = type: in vivo, dog; settings: dog
[8] = system: plasma cytokines, chemokines, and growth factors; type: in vivo, human; settings: IL‐1β, IL‐2, IL‐4, IL‐6, IL‐8, IFNγ, TNFα; IL‐15, IL‐17A; MCP‐1, and IP‐10
rat = assay: In vivo micronucleus test in rat
[9] = In vitro induction of chromosome aberrations; type: cell-based
[10] = 10 mg single dose FASTED (N = 16)
[11] = 20 mg single dose FASTED (N = 14)
[12] = 10 mg, oral 10 mg single dose FASTED (N = 16)
[13] = 10 mg, oral 10 mg single dose FED (N = 9)
[14] = 20 mg, oral 20 mg single dose FASTED (N = 14)

N#Cc1ccc(-c2cnc3ccc(-c4ccc(C(=O)N5CCOCC5)cc4)cn23)cc1 [ETC‐206]
cardiovascular parameters (blood pressure, heart rate, cardiac repolarization) (dogs [1]): affected cardiovascular (CV) parameters | survival of stem cells [2]: impeded survival | mutagenicity (bacteria): did not show any mutagenicity | relationship between ETC‐206 plasma concentrations and changes from baseline of QTcF (healthy volunteers [3]; mixed effects regression model, flat slope (P = 0.7) of each dose and condition): no relationship | proarrhythmic risks (healthy volunteers [3]; range of doses explored (10 and 20 mg single doses)): no evidence for ETC‐206 proarrhythmic risks | plasma protein binding in humans compared with dogs (Plasma protein binding): higher | plasma levels of pro‐inflammatory cytokines, chemokines, and growth factors [4]: decrease plasma levels | tumor growth (mouse model of CML‐BC; in combination with tyrosine kinase inhibitors): inhibited tumor growth | antitumor activity (mouse model of CML‐BC; single agent): no antitumor activity | IC50 (phosphodiesterase 3): 2250 nM | serious adverse events related to ETC‐206 (healthy volunteers [5]; general safety): did not show any serious adverse events | AEs grade 1–2 CTCAE, % (healthy volunteers [5]; [10]): 9 (56) | AEs grade 3 CTCAE: ↑CK, % (healthy volunteers [5]; [10]): 0 | Gastrointestinal disorders, % (healthy volunteers [5]; [10]): 4 (25) | Investigations, % (healthy volunteers [5]; [10]): 5 (31) | ↑ALT (%) (healthy volunteers [5]; [10]): 1 (6) | ↑CK (%) (healthy volunteers [5]; [10]): 1 (6) | ↓WBC (%) (healthy volunteers [5]; [10]): 3 (19) | SAEs: seizure (%) (healthy volunteers [5]; 10 mg single dose FASTED (N = 16), not drug-related): 1 (6) ^a | AEs grade 1–2 CTCAE, % (healthy volunteers [5]; 10 mg single dose FED (N = 9)): 9 (100) | AEs grade 3 CTCAE: ↑CK, % (healthy volunteers [5]; 10 mg single dose FED (N = 9)): 0 | Gastrointestinal disorders, % (healthy volunteers [5]; 10 mg single dose FED (N = 9)): 2 (22) | Investigations, % (healthy volunteers [5]; 10 mg single dose FED (N = 9)): 1 (11) | SAEs: seizure (%) (healthy volunteers [5]; 10 mg single dose FED (N = 9)): 0 | ↑ALT (%) (healthy volunteers [5]; 10 mg single dose FED (N = 9)): 0 | ↑CK (%) (healthy volunteers [5]; 10 mg single dose FED (N = 9)): 0 | ↓WBC (%) (healthy volunteers [5]; 10 mg single dose FED (N = 9)): 1 (11) | AEs grade 1–2 CTCAE, % (healthy volunteers [5]; [11]): 11 (79) | Gastrointestinal disorders, % (healthy volunteers [5]; [11]): 3 (21) | Investigations, % (healthy volunteers [5]; [11]): 1 (7) | SAEs: seizure (%) (healthy volunteers [5]; [11]): 0 | ↑ALT (%) (healthy volunteers [5]; [11]): 0 | ↑CK (%) (healthy volunteers [5]; [11]): 0 | ↓WBC (%) (healthy volunteers [5]; [11]): 0 | AEs grade 3 CTCAE: ↑CK, % (healthy volunteers [5]; 20 mg single dose FASTED (N = 14), not drug-related): 1 (7) ^b | Diarrhea, % (healthy volunteers [5]; [10]): 3 (19) | Diarrhea, % (healthy volunteers [5]; 10 mg single dose FED (N = 9)): 2 (22) ^f | Diarrhea, % (healthy volunteers [5]; [11]): 3 (21) ^g | maximum administered dose (healthy volunteers [5]; single dose, fasted, no dose‐limiting toxicity, not the maximum tolerated dose): 20 mg | dose proportionality ([6]; 10 to 20 mg single doses in fasted condition): showed dose proportionality | Mean t1/2 ([6]; oral 10 mg single dose FASTED (N = 16)): 22.95 [5.63] hour | Mean t1/2 ([6]; oral 10 mg single dose FED (N = 9)): 27.57 [5.68] hour | AUC(0-inf) [6, 12]: 24400 ng·h/mL | AUC(0-inf) [6, 13]: 30000 ng·h/mL | AUC(0-t) [6, 12]: 21900 ng·h/mL | AUC(0-t) [6, 13]: 28700 ng·h/mL | Cmax [6, 12]: 927 ng/mL | Tmax [6, 12]: 1.11 h | half-life [6, 12]: ~23 h | half-life [6, 13]: ~28 h | Vd/F [6, 12]: 13.9 L | AUC(0-inf) [6, 14]: 60300 ng·h/mL | AUC(0-t) [6, 14]: 57800 ng·h/mL | Cmax [6, 14]: 1950 ng/mL | Tmax [6, 14]: 1 h | half-life [6, 14]: 25.8 h | Vd/F [6, 14]: 12.5 L | highest unbound mean free fraction AUC0−last at NOAEL (dogs [7]): 670 ng·h/mL | highest unbound mean free fraction Cmax at NOAEL (dogs [7]): 11.8 ng/mL | bile duct proliferation (dogs [7]; 4 weeks, medium and high doses): minimal to mild | liver enzymes (ALT, alkaline phosphatase, gamma glutamyltransferase) (dogs [7]; 4 weeks, medium and high doses): increase in liver enzymes | NOAEL at 4 weeks (4-week study in dogs; in vivo): 3 mg/kg/day | AUC(0-t) (4-week study in dogs; plasma, 3 mg/kg/day): 7230 ng·h/mL | Cmax (4-week study in dogs; plasma, 3 mg/kg/day): 935 ng/mL | activity on plasma cytokines, chemokines, and growth factors [8]: did not show any activity | mutagenicity (rat): did not show any mutagenicity | mutagenicity [9]: did not show any mutagenicity
